According to patent publication US7763596B2, “Selective glucocorticoid receptor agonists” (The University of Manchester, priority 2000, dated 2010):

Legend:
Assay type in all cases: cell-based
[1] = molecular target: T1, GR ligand binding domain / SRC-1 (Homo sapiens, UniProt P04150); experiment: SRC-1 association assay by mammalian two-hybrid analysis; settings: 100 nM
T1 construct: expressed in transfected cells
T1 sequence (P04150 524-758 limits assumed): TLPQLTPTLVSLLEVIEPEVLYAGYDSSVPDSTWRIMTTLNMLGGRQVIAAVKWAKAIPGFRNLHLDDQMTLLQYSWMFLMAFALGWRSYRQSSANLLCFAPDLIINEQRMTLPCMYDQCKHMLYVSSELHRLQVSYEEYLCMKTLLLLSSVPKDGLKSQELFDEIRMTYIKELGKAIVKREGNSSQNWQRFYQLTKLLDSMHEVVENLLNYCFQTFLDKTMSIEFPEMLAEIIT
Text: SRC-1 is an important co-activator of GR action that associates with the GR in a ligand dependant manner. The ability of SRC-1 to associate with the GR in this manner can be used as a measure of potency of ligand mediated transactivation. To perform this assay plasmids that generated VP16-GR ligand binding domain (LBD) and GAL4-SRC-1 fusion proteins and a GAL4 binding luciferase reporter gene construct were transfected into in a cell line lacking GR and deficient in endogenous SRC-1. The GAL4-SRC-1 fusion protein could bind to specific sites upstream of the luciferase reporter gene construct. If the SRC-1 fusion protein associated with the ligand bound VP16-GRLBD fusion protein then the VP-16 activation domain augmented the luciferase gene expression.

[2] = molecular target: T2, progesterone receptor (PRB) (Homo sapiens, UniProt P06401); experiment: Progestogen activity assay using progesterone receptor transactivation; settings: 100 nM, AH3-luc reporter, COS7
T2 construct: expressed in transfected cells; host or cells: COS 7
T2 sequence (P06401 1-933): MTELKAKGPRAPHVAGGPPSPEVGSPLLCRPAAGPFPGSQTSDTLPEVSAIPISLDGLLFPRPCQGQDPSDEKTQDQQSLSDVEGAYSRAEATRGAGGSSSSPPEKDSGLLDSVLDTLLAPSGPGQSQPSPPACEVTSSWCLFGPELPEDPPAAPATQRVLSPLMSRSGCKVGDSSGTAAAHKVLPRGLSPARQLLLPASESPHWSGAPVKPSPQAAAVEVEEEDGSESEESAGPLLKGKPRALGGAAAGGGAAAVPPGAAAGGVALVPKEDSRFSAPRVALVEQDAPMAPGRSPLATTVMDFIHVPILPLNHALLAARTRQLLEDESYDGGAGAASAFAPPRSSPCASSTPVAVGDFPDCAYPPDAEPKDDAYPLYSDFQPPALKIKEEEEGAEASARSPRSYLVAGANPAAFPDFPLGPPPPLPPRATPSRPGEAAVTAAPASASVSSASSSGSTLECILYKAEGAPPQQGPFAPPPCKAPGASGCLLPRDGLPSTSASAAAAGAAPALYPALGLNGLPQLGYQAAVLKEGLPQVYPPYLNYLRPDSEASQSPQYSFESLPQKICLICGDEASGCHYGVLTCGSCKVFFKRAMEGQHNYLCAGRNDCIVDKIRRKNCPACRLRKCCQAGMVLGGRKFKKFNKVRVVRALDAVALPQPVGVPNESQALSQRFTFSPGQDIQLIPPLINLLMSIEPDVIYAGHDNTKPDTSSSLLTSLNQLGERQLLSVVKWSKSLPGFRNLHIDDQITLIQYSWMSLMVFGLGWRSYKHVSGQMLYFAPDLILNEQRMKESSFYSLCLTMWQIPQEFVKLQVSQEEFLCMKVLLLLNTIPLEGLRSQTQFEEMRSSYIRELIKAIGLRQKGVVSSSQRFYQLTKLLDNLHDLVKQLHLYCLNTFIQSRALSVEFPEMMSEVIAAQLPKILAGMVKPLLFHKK
Text: As the GR LBD has strong homology with the PR LBD there is a chance that any of the tested steroids of FIGS. 1 and 2A that activate one of these receptors may also activate the other. The presence of illegitimate progestogen activity associated with the steroids of FIGS. 1 and 2A was examined using a transactivation assay with the PR instead of the GR.
The PR was artificially expressed in a cell line lacking endogenous PR and a GRE “driving” a luciferase reporter gene was used to measure ligand dependent activation.
COS7 cells were transfected with 1 μg pSEO-PRB and 3 μg AH3-Luc per 10 cm tissue culture dish. The cells were plated out in to 24 well plates after transfection and the steroids of FIGS. 1 and 2A were added immediately to generate a final concentration of 100 nM. After 18 hour incubation the cells were lysed and a luciferase assay was performed.

[3] = molecular target: T3, glucocorticoid receptor (Homo sapiens, UniProt P04150); experiment: Transactivation assay using artificially expressed glucocorticoid receptor in the COS 7 monkey kidney cell line (GRE luciferase); design: expressed in transfected cells; host or cells: COS 7 (African green monkey kidney, deficient in endogenous GR); settings: 1, 10, 10 and 500 nM; FIG. 5
T3 sequence (P04150 1-777): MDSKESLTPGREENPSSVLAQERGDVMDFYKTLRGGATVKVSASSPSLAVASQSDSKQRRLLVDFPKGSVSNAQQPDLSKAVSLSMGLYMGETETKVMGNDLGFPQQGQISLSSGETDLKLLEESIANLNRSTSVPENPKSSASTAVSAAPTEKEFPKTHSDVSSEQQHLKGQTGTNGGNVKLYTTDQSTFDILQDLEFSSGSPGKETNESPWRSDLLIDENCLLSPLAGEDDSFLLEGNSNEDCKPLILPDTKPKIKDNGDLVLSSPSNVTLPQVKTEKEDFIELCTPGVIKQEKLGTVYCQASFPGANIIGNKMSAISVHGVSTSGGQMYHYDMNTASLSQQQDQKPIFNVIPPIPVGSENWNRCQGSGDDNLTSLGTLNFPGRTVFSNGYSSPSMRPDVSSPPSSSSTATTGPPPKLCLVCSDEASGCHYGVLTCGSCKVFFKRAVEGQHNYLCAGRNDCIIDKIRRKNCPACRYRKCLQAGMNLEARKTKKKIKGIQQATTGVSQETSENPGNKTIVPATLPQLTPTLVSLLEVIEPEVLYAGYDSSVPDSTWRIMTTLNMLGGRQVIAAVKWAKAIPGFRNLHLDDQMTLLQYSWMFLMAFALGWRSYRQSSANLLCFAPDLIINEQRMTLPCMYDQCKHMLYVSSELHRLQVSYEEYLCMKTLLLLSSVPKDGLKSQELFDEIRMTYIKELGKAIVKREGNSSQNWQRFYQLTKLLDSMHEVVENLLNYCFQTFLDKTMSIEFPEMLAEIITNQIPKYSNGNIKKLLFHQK
Procedure: (§1) All transfections were performed using lipofectamine plus (Gibco BRL), according to the manufacturers' instructions, as previously described^1. Briefly, all cells were seeded at 5×10^5 per 10 cm tissue culture plate 18 hours before transfection, the next day the relevant plasmids were mixed with serum free medium and “Plus” reagent (Gibco BRL) and incubated for 15 mins, lipofectamine reagent was added and the mix was incubated for a further 15 mins, this mix was added to the cells on serum free medium in the 10 cm tissue culture plates and left for 3 hours, the cells were then trypsinised and divided into 24 well plates, the cells were left to recover overnight and were treated with steroid for 16 hours before harvest. All experiments were performed from one transfection in triplicate and on separate occasions with similar results.
(§2) The firefly luciferase gene catalyses the production of light from the substrate luciferin. When plasmid constructs containing this gene are transfected into cell lines the activity of the gene can be assessed by the intensity of the luminesence. The luciferase assay yields luminescence through an ATP-dependent oxidation of luciferin the amount of light produced can be measured by a luminometer and is a measure of gene activity (Davis, 1996). Light intensity was measured in a Luminometer (LB 9501, Berthold). The light intensity should be proportional to luciferase concentration in the range of 10^−16M (10 μg/L) to 10^−8M (1 mg/L). To measure the luminescence of the treated cells 150 μl of 1× reporter lysis buffer (RLB: 25 mM Tris phosphate pH7.8, 10 mM MgCl2, 15% Glycerol, 1% Triton, 1 mM EDTA) was added to the 24 well plates to lyse the cells and incubated at room temperature for 30 mins whilst being shaken. Then 100 μl of the room temperature cell extract were mixed with 100 μl of room temperature Luciferase Assay Reagent (LAR: 1 mM ATP, 0.3 mM D-Luciferin, 66% RLB). This reaction was mixed in a luminometer (LB 9501, Berthold) and the light produced was measured for a period of 5 seconds.
In this assay the GR was artificially expressed in a cell line lacking endogenous GR and a glucocorticoid response element (GRE) “driving” a luciferase reporter gene was used to measure ligand dependent activation.
COS7 cells were transfected with 1 μg pcDNA3-GR and 3 μg AH3-Luc per 10 cm tissue culture dish. The cells were plated out in to 24 well plates after transfection and the steroids were added immediately. After 18 hour incubation the cells were lysed and a luciferase assay was performed.

[4] = molecular target: T3, glucocorticoid receptor; experiment: Transrepression assay using artificially expressed glucocorticoid receptor and P65 in the COS 7 cell line (NRE luciferase); design: expressed in transfected cells; host or cells: COS 7 (African green monkey kidney, deficient in endogenous GR); settings: 1, 10 and 100 nM
Procedure: as §1, §2
To perform this assay the GR and p65 were artificially expressed in a cell line lacking GR and deficient in endogenous P65. The ability of P65 to activate an NFkB response element (NRE) “driving” a luciferase reporter gene could then be repressed by GR in a ligand dependent manner and, therefore, used to measure transrepression.
COS7 cells were transfected with 1 μg pcDNA3-GR and 3 μg NRE-Luc and 200 ng p65 per 10 cm tissue culture dish. The cells were plated out in to 24 well plates after transfection and left for 18 hours to recover before the steroids of FIGS. 1 and 2A were added. After another 18 hour incubation the cells were lysed and a luciferase assay was performed.

[5] = molecular target: T3, glucocorticoid receptor; experiment: Type II antagonist activity assay: competition of dexamethasone transactivation; design: expressed in transfected cells; host or cells: COS 7 (African green monkey kidney, deficient in endogenous GR); settings: 1, 10, 100 nM; 1 nM dexamethasone
Procedure: A type II antagonist should be able to compete agonist activity. As an antagonist has no ability to transactivate, competition can be measured by inhibition of an agonist in a transactivation assay.
As with the standard transactivation assay previously described, the GR was artificially expressed in a cell line lacking endogenous GR and a GRE “driving” a luciferase reporter gene was used to measure ligand dependent activation. COS7 cells were transfected with 1 μg pcDNA3-GR and 3 μg AH3-Luc per 10 cm tissue culture dish. The cells were plated out in to 24 well plates after transfection and the steroids were added immediately. […] Certain steroids from FIG. 2A were added at the same concentration to all sample wells. After 18 hour incubation the cells were lysed and a luciferase assay was performed.

SMILES	PRB reporter gene activation [2]	also measured
CC1CC2C3CCC4=CC(=O)C=CC4(C)C3(F)C(O)CC2(C)C1(O)C(=O)NCc1ccccc1 (stereo not shown) [Compound K]	slightly increased reporter gene activation compared to that of dexamethasone	SRC-1 recruitment at the highest concentration tested [1]: significant response
CNC(=O)C1(O)C(C)CC2C3CCC4=CC(=O)C=CC4(C)C3(F)C(O)CC21C (stereo not shown) [Compound M]	slightly increased reporter gene activation compared to that of dexamethasone	
CC1CC2C3CCC4=CC(=O)C=CC4(C)C3(F)C(O)CC2(C)C1(O)C(=O)COC(=O)Nc1ccccc1 (stereo not shown) [Compound N]	slightly increased reporter gene activation compared to that of dexamethasone	
CC1CC2C3CCC4=CC(=O)C=CC4(C)C3(F)C(O)CC2(C)C1(O)C(=O)COC(=O)Nc1ccc(F)cc1 (stereo not shown) [Compound S]	slightly increased reporter gene activation compared to that of dexamethasone	SRC-1 recruitment at the highest concentration tested [1]: significant response
CCCN(CCC)C(=O)C1(O)C(C)CC2C3CCC4=CC(=O)C=CC4(C)C3(F)C(O)CC21C (stereo not shown) [P]		transactivation potential (luminescence) compared to dexamethasone, repeat experiment [3]: “right shifted response” and a reduced maximum compared to dexamethasone; repression of P65 stimulation of an NFkB response element compared with dexamethasone [4]: no effect at 1 and 10 nM with only a negligible repression at 100 nM
CC#C[C@]1(O)CC[C@H]2[C@@H]3CCC4=CC(=O)CCC4=C3[C@@H](c3ccc(N(C)C)cc3)C[C@@]21C [RU486, reference compound]		maximal repression of transactivation [5]: ~50%
CC(=O)[C@H]1CC[C@H]2[C@@H]3CCC4=CC(=O)CC[C@]4(C)[C@H]3CC[C@]12C [progesterone, reference compound]	strong induction of the reporter gene	
